Measurements published in patent US20070259439A1, “Determination of antibiotic concentration in bone” (Wyeth, priority 2006, published 2007).
Values joined by “and” are separate entries in the source; they are usually repeats but may differ in a detail not shown here. Identical values can stand only once. Marks after values point to notes of the source that are not given here.

Tests used:
in vivo = conditions: rat
Procedure: Absolute extraction recovery (AbsER): Bone is a heterogeneous tissue and, unlike with a plasma or urine method validation, the extraction recovery cannot be determined with a drug spiked rat bone QC sample. Therefore, it is necessary to measure a virtual known amount of drug in an incurred rat bone sample to determine the absolute extraction recovery. Using combusted IncRB samples from Group B (rats administered radio labeled ^14C-tigecycline), the amount of labeled drug in bone was measured using a liquid scintillation counter. Four aliquots of IncRB Group B (0.1 grams) were accurately weighed, placed into combustion cones, and allowed to air dry for approximately 3 days. These 4 samples were then oxidized in a Model 307/Oximate 80 sample oxidizer, using Carbosorb® E (7 ml) as a trapping agent and PermalFluor® ET (10 ml) as a scintillant. […] The oxidized samples were counted in a Packard (Perkin Elmer) liquid scintillation counter (LSC) using a toluene standard curve. The ng-equiv/ml concentrations were calculated using specific activity of the dosing solution.
In parallel, five aliquots of IncRB Group B (0.1 gram) were weighed. […]
The absolute extraction recovery was determined using the following equation: […]
[total amount of tigecycline per gram of bone (Group B, determined by LC/MS/MS)]/[total amount of tigecycline per gram of bone (Group B, after combustion as determined by LSC)]×100

[1] = Antibiotic bone assay (LC/MS/MS): tigecycline concentration in incurred human bone; format: in vivo
Procedure: Incurred Human Bone: Incurred human bone samples were from Wyeth 3074A1-117-US clinical study. Human bone samples were from the collection of patients who received Tygacil treatment and had bone replacement surgery in 2004. All bone samples were stored at −70° C.
Preparation of incurred human bone sample (incHB) QC sample: Collected large pieces of bone (5-50 g per piece) were immersed in liquid nitrogen in a double thickness 7″×8″ Bitran S series specimen bag and the bone sample was broken into 10 mm or smaller pieces using a steel hammer on a high density polyethylene dissecting borad (11″×13″). The bone pieces were then broken into smaller (approximately 5 mm or less) pieces using a large ceramic mortar and pestle. […]
Calibrators, quality control (QC) samples, and IncRB QC sample (an incurred rat bone sample used as a QC and evaluated multiple times) were prepared as described below. Due to high concentration of oxidant(s) in human bone (incurred and control bone), which can destroy tigecycline before it can be detected after extraction, preparation of calibrators, QCs and incurred samples for human bone require addition of 120 μL of 100 mM L-ascorbic acid solution to the samples (0.1 g) and incubation for 5 minutes at room temperature before adding extraction solvent. […]

**Q.** Which results are given for `CN(C)c1cc(NC(=O)CNC(C)(C)C)c(O)c2c1C[C@H]1C[C@H]3[C@H](N(C)C)C(O)=C(C(N)=O)C(=O)[C@@]3(O)C(O)=C1C2=O` [tigecycline, Tigecycline]?
**A.** concentration at 4 h (in vivo): 3190 ng/g; Measured conc. (in vivo; 4 h): 4137^a ng-equivalent/g of bone; Tigecycline concentration in incurred human bone samples ([1]; 24 individual samples, study 3074A1-117-US, stored approximately twenty-one months at −70° C.): 492 ng/g (2×) and 550 ng/g and 665 ng/g and 431 ng/g and 628 ng/g and 269 ng/g and 290 ng/g and 335 ng/g and 238 ng/g and 240 ng/g and 433 ng/g and 560 ng/g and 362 ng/g and 491 ng/g and 595 ng/g and 258 ng/g and 323 ng/g and 421 ng/g and 411 ng/g and 626 ng/g and 281 ng/g and 439 ng/g and 794 ng/g; Inc HB QC sample concentration (incurred human bone) ([1]; patients who received Tygacil, nominal value = mean of 3-day global inter-day validation (n = 15)): 257 ng/g and 257^a ng/g
